Common to all, as to type: functional
For test [1], the system named is Staphylococcus aureus. In words: Antibacterial activity against methicillin-resistant Staphylococcus aureus after overnight incubation by micro broth dilution analysis.
Test [2] concerns Staphylococcus haemolyticus. The test can be described thus: Antibacterial activity against methicillin-resistant Staphylococcus haemolyticus assessed as zone of inhibition at 50 ug/mL after 24 hrs by agar disc diffusion method. As to conditions: read-out: IZ. On the technique in general: Agar diffusion results depend on both activity and mobility in agar.
The test system of test [3] is Staphylococcus epidermidis. In words: Antibacterial activity against methicillin-resistant Staphylococcus epidermidis after overnight incubation by micro broth dilution analysis. A general note: Broth dilution looks for growth in wells or tubes with falling amounts of substance.
In test [4] the test system is Staphylococcus aureus. The test can be described thus: Antibacterial activity against methicillin-resistant Staphylococcus aureus assessed as zone of inhibition at 50 ug/mL after 24 hrs by agar disc diffusion method. The conditions noted are these: read-out: IZ.
In test [5] the test system is Staphylococcus epidermidis. The test can be described thus: Antibacterial activity against methicillin-resistant Staphylococcus epidermidis assessed as zone of inhibition at 20 ug/mL after 24 hrs by agar disc diffusion method. The conditions noted are these: read-out: IZ.
Test [6] relates to Staphylococcus haemolyticus. The test can be described thus: Antibacterial activity against methicillin-resistant Staphylococcus haemolyticus after overnight incubation by micro broth dilution analysis.

In brackets after ≈: the same amount, converted by molar mass.

For orientation: MIC99 means an inhibitory concentration at the 99% level, which refers to growth in some studies and to a panel of isolates in others. A high value points to weaker potency. With `N#Cc1cccc(/C=C/C=C/S(=O)(=O)F)c1`, the values for the MIC99 (in the test with Staphylococcus aureus [1]; in test [3]; in test [6]) were 41.2 µg/mL (≈ 174 µM), 50 µg/mL (≈ 211 µM) and 51.2 µg/mL (≈ 216 µM), respectively. The figures for the zone of inhibition at 50 µg/mL (in test [2]; in the test with Staphylococcus aureus [4]) were 5.1 mm and 3.5 mm, respectively. Further, in test [5], the zone of inhibition at 20 µg/mL worked out at 4.5 mm.
As to `O=S(=O)(F)/C=C/C=C/c1ccccc1C(F)(F)F`, the figures for the MIC99 (with Staphylococcus aureus [1]; in test [3]; in test [6]) were 55.1 µg/mL (≈ 197 µM), 52.6 µg/mL (≈ 188 µM) and 55.1 µg/mL (≈ 197 µM), respectively. Besides, the zone of inhibition at 50 µg/mL was determined as 4.3 mm in test [2] and 4.1 mm with Staphylococcus aureus [4]. In addition, in test [5], the zone of inhibition at 20 µg/mL was 4.1 mm.
`O=S(=O)(F)/C=C/C=C/c1ccc2ccccc2c1`: the MIC99 against Staphylococcus aureus [1] was found to be 58 µg/mL (≈ 221 µM); in test [3] it was 63 µg/mL (≈ 240 µM); in test [6] it was 51 µg/mL (≈ 195 µM). Moreover, the zone of inhibition at 50 µg/mL is 4.5 mm in test [2] and 3.3 mm in the test on Staphylococcus aureus [4]. For the same compound, the zone of inhibition at 20 µg/mL in test [5] turned out to be 5.4 mm.
Turning to `CCOC(=O)c1ccc(/C=C/S(=O)(=O)F)cc1`, the MIC99 against Staphylococcus aureus [1] worked out at 41.1 µg/mL (≈ 159 µM); in test [3], 56.1 µg/mL (≈ 217 µM); in test [6], 67.3 µg/mL (≈ 261 µM). In addition, the zone of inhibition at 50 µg/mL is 4.2 mm in test [2] and 6.1 mm in the test on Staphylococcus aureus [4]. In addition, the zone of inhibition at 20 µg/mL in test [5] is 5.5 mm.
Consider `O=S(=O)(F)/C=C/c1ccc2ccccc2c1`, for which the MIC99 was found to be 47 µg/mL (≈ 199 µM) against Staphylococcus aureus [1], 43.1 µg/mL (≈ 183 µM) in test [3] and 65.5 µg/mL (≈ 277 µM) in test [6]. For the same compound, the zone of inhibition at 50 µg/mL was found to be 3.5 mm in test [2] and 7.2 mm in the test on Staphylococcus aureus [4]. Also, the zone of inhibition at 20 µg/mL in test [5] was determined as 4.4 mm.
On to `COc1ccc(Cl)cc1/C=C/S(=O)(=O)F`, for which the MIC99 in the test with Staphylococcus aureus [1] was determined as 51.1 µg/mL (≈ 204 µM); in test [3], 40.4 µg/mL (≈ 161 µM); in test [6] it was 47 µg/mL (≈ 188 µM). The zone of inhibition at 50 µg/mL was 5.2 mm in test [2] and 5.1 mm with Staphylococcus aureus [4]. Moreover, the zone of inhibition at 20 µg/mL in test [5] turned out to be 5.2 mm.
For the compound `O=Cc1ccc(/C=C/S(=O)(=O)F)cc1`, the MIC99 in the test on Staphylococcus aureus [1] was 45.6 µg/mL (≈ 213 µM); in test [3], 48.2 µg/mL (≈ 225 µM); in test [6] it was 60.1 µg/mL (≈ 281 µM). The zone of inhibition at 50 µg/mL in test [2] amounted to 5.2 mm; in the test on Staphylococcus aureus [4] it was 6 mm. Also, the zone of inhibition at 20 µg/mL in test [5] stood at 4.3 mm.
For `O=S(=O)(F)/C=C/c1ccc(I)cc1`, the MIC99 in the test with Staphylococcus aureus [1] was determined as 48.2 µg/mL (≈ 154 µM); in test [3], 50.6 µg/mL (≈ 162 µM); in test [6] it was 47.6 µg/mL (≈ 153 µM). For the same compound, the zone of inhibition at 50 µg/mL in test [2] amounted to 4.4 mm; with Staphylococcus aureus [4], 5.2 mm. Besides, the zone of inhibition at 20 µg/mL in test [5] was 5.2 mm.
With `Cc1ccc(S(=O)(=O)n2cc(/C=C/S(=O)(=O)F)c3ccccc32)cc1`, the MIC99 with Staphylococcus aureus [1] stood at 47.1 µg/mL (≈ 124 µM); in test [3] it was 51.2 µg/mL (≈ 135 µM); in test [6], 58 µg/mL (≈ 153 µM). Besides, the zone of inhibition at 50 µg/mL came out at 4.2 mm in test [2] and 5.1 mm in the test with Staphylococcus aureus [4]. In test [5], the zone of inhibition at 20 µg/mL came out at 4.1 mm.
Take `O=S(=O)(F)/C=C/C=C/c1ccccc1`: the results for the MIC99 (against Staphylococcus aureus [1]; in test [3]; in test [6]) were 56.2 µg/mL (≈ 265 µM), 52 µg/mL (≈ 245 µM) and 58.1 µg/mL (≈ 274 µM), respectively. Also, the zone of inhibition at 50 µg/mL in test [2] is 5.2 mm; in the test with Staphylococcus aureus [4], 6.2 mm. Besides, in test [5], the zone of inhibition at 20 µg/mL came out at 6.2 mm.
As to `O=S(=O)(F)/C=C/c1cccc2c1oc1ccccc12`, the MIC99 with Staphylococcus aureus [1] was 17 µg/mL (≈ 61.6 µM); in test [3], 67.5 µg/mL (≈ 244 µM); in test [6], 47 µg/mL (≈ 170 µM). Also, the zone of inhibition at 50 µg/mL in test [2] turned out to be 3.3 mm; with Staphylococcus aureus [4] it was 6.3 mm. For the same compound, the zone of inhibition at 20 µg/mL in test [5] was found to be 3.5 mm.
For the compound `O=S(=O)(F)/C=C/c1cccc(-c2ccccc2)c1`, the MIC99 was determined as 40.1 µg/mL (≈ 153 µM) with Staphylococcus aureus [1], 44.1 µg/mL (≈ 168 µM) in test [3] and 40.2 µg/mL (≈ 153 µM) in test [6]. Further, the values for the zone of inhibition at 50 µg/mL (in test [2]; in the test with Staphylococcus aureus [4]) were 5.2 mm and 7.8 mm, respectively. Also, the zone of inhibition at 20 µg/mL in test [5] was found to be 5.5 mm.
With `O=S(=O)(F)/C=C/C=C/c1ccc(C(F)(F)F)cc1`, the results for the MIC99 (in the test on Staphylococcus aureus [1]; in test [3]; in test [6]) were 59.1 µg/mL (≈ 211 µM), 55.2 µg/mL (≈ 197 µM) and 67 µg/mL (≈ 239 µM), respectively. The values for the zone of inhibition at 50 µg/mL (in test [2]; in the test with Staphylococcus aureus [4]) were 4.5 mm and 5.1 mm, respectively. Moreover, in test [5], the zone of inhibition at 20 µg/mL came out at 6.5 mm.
In the case of `O=S(=O)(F)/C=C/C=C/c1ccc(/C=C/S(=O)(=O)F)cc1`, the values for the MIC99 (with Staphylococcus aureus [1]; in test [3]; in test [6]) were 66.8 µg/mL (≈ 209 µM), 56 µg/mL (≈ 175 µM) and 55 µg/mL (≈ 172 µM), respectively. Moreover, the values for the zone of inhibition at 50 µg/mL (in test [2]; with Staphylococcus aureus [4]) were 3.5 mm and 5.3 mm, respectively. For the same compound, the zone of inhibition at 20 µg/mL in test [5] stood at 4.2 mm.
Turning to `O=S(=O)(F)/C=C/c1coc2ccccc12`, the MIC99 in the test with Staphylococcus aureus [1] was 45 µg/mL (≈ 199 µM); in test [3], 52.1 µg/mL (≈ 231 µM); in test [6] it was 51 µg/mL (≈ 225 µM). Besides, the zone of inhibition at 50 µg/mL came to 3.5 mm in test [2] and 6.2 mm with Staphylococcus aureus [4]. The zone of inhibition at 20 µg/mL in test [5] was 6.4 mm.

The values above are taken from ChEMBL document CHEMBL4382233, “Discovery of novel arylethenesulfonyl fluorides as potential candidates against methicillin-resistant of Staphylococcus aureus (MRSA) for overcoming multidrug resistance of bacterial infections” (2019).
